Results on 21 compounds are retold here after patent US20100009970A1, “COMPOSITIONS AND METHODS FOR TREATMENT OF VIRAL DISEASES” (Combinatorx (Singapore) Pte. Ltd., priority 2008, published 2010).

SMILES strings stand for the structures. Structures can show the parent of a compound that is named as a salt.

For orientation: IC50 means the midpoint of a concentration-inhibition curve. Low values mean greater potency, high ones weaker potency.

This assay relates to Huh7 cells expressing a subgenomic RNA replicon of Con1 (genotype 1b) sequence origin. Nature of the assay: microbe, parasite or virus in culture. Particulars: Hepatitis C virus, Huh-7.
The compound `COc1c(C)c2c(c(O)c1C/C=C(\C)CCC(=O)O)C(=O)OC2` [Mycophenolic Acid, Mycophenolic acid, reference compound] registered an IC50 of 0.751 µM. The compound `CC[C@@H](C(=O)O)[C@@H]1O[C@@H]([C@@H](C)[C@H](O)[C@H](C)C(=O)[C@H](CC)[C@H]2O[C@]3(C=C[C@@H](O)[C@]4(CC[C@@](C)([C@H]5CC[C@](O)(CC)[C@H](C)O5)O4)O3)[C@H](C)C[C@@H]2C)[C@@H](C)C[C@@H]1C` [Narasin, reference compound] yielded an IC50 of 0.176 µM. Turning to `Cc1c(O)cccc1C(=O)N[C@@H](CSc1ccccc1)[C@H](O)CN1C[C@H]2CCCC[C@H]2C[C@H]1C(=O)NC(C)(C)C` [Nelfinavir (e.g., mesylate), nelfinavir, reference compound], the IC50 came to 4.25 µM. In the case of `CC(=O)Oc1ccccc1C(=O)Nc1ncc([N+](=O)[O-])s1` [Nitazoxanide, nitazoxanide, reference compound] it was 14 µM; in that of `COc1ccc2c(c1OC)C(=O)O[C@@H]2[C@H]1c2c(cc3c(c2OC)OCO3)CCN1C` [Noscapine, reference compound], 15.8 µM. In turn, `CCCCC(CC)COC(=O)/C=C/c1ccc(OC)cc1` (stereo not drawn) [Octyl Methoxycinnamate, reference compound] returned an IC50 of 1.24 µM.

In the case of `CCN(CC)CCOCCOC(=O)C(CC)(CC)c1ccccc1` [Oxeladin, reference compound], the IC50 is 8.72 µM. In the case of `COC(=O)Nc1nc2ccc([S+]([O-])c3ccccc3)cc2[nH]1` (stereo not drawn) [Oxfendazole, reference compound], the IC50 was determined as 7.3 µM.

With `CCCOc1ccc2nc(NC(=O)OC)[nH]c2c1` [Oxibendazole, reference compound], the IC50 stood at 0.3 µM. The same measure for `CC(=O)O[C@H]1C(=O)[C@@]2(C)[C@H]([C@H](OC(=O)c3ccccc3)[C@]3(O)C[C@H](OC(=O)[C@H](O)[C@@H](NC(=O)c4ccccc4)c4ccccc4)C(C)=C1C3(C)C)[C@]1(OC(C)=O)CO[C@@H]1C[C@@H]2O` [Paclitaxel, reference compound]: 0.0092 µM; for `C=C1C(=O)O[C@H]2[C@H]1CC/C(C)=C/CC[C@@]1(C)O[C@@H]21` [Parthenolide, reference compound]: 2.69 µM; for `O=C1[C@H]2CCCC[C@H]2C(=O)N1CCCCN1CCN(c2nsc3ccccc23)CC1` [Perospirone, reference compound]: 3.6 µM. The same measure for `Nc1ccc(/N=N/c2ccccc2)c(N)n1` [Phenazopyridine (e.g., hydrochloride), Phenazopyridine, reference compound]: 7.85 µM; for `Oc1cc(O)cc(/C=C/c2ccc(O)c(O)c2)c1` [Piceatannol, reference compound]: 5.47 µM. The same measure for `CN(C)CCCN1c2ccccc2Sc2ccccc21` [Promazine (e.g., hydrochloride), promazine, reference compound]: 16.1 µM; for `CC[N+](C)(CC)CCC[n+]1c(-c2ccccc2)c2cc(N)ccc2c2ccc(N)cc21` [Propidium (e.g., iodide), Propidium, reference compound]: 9.38 µM; for `CCN(CC)CCCC(C)Nc1c2ccc(Cl)cc2nc2ccc(OC)cc12` (stereo not drawn) [Quinacrine, reference compound]: 4.17 µM. As for `C#C[C@]1(O)CC[C@H]2[C@@H]3CCc4cc(OC5CCCC5)ccc4[C@H]3CC[C@@]21C` [Quinestrol, reference compound], the 50% inhibitory concentration (IC50) is 5.43 µM. In the case of `O=C(c1ccc(OCCN2CCCCC2)cc1)c1c(-c2ccc(O)cc2)sc2cc(O)ccc12` [Raloxifene (e.g., hydrochloride), Raloxifene, reference compound] it was 3.74 µM; in that of `CCOc1cc(CC(=O)N[C@@H](CC(C)C)c2ccccc2N2CCCCC2)ccc1C(=O)O` [Repaglinide, reference compound], 12.2 µM; in that of `COC(=O)[C@H]1[C@H]2C[C@@H]3c4[nH]c5cc(OC)ccc5c4CCN3C[C@H]2C[C@@H](OC(=O)/C=C/c2cc(OC)c(OC)c(OC)c2)[C@@H]1OC` [Rescinnamine, reference compound], 7.88 µM.
